This test has as its target T1, VLA-4 (Homo sapiens, UniProt P05556+P13612).
T1 construct: host or cells: Jurkat clone E6-1
Put plainly: Adhesion of Jurkat cells to immobilized VCAM-1 (domains 1-3). To be noted: adhesion of CFSE-labeled Jurkat cells to recombinant human VCAM-1 (domains 1-3) coated plates; compounds as yielded by solid phase synthesis, purity about 40-90%; read-out: IC50. The class given is cell-based. A digest of the protocol: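 CFSE-labelled Jurkat E6-1 cells in Tris buffer pH 7.4 with 2 mM MnCl2 were added to wells coated with insect-cell-expressed human VCAM-1 domains 1-3 (0.5 μg/ml coating solution); labelled cells were incubated for 30 min at 37 °C with the VLA-4 inhibitor.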

T1 sequence (P13612 34-1032): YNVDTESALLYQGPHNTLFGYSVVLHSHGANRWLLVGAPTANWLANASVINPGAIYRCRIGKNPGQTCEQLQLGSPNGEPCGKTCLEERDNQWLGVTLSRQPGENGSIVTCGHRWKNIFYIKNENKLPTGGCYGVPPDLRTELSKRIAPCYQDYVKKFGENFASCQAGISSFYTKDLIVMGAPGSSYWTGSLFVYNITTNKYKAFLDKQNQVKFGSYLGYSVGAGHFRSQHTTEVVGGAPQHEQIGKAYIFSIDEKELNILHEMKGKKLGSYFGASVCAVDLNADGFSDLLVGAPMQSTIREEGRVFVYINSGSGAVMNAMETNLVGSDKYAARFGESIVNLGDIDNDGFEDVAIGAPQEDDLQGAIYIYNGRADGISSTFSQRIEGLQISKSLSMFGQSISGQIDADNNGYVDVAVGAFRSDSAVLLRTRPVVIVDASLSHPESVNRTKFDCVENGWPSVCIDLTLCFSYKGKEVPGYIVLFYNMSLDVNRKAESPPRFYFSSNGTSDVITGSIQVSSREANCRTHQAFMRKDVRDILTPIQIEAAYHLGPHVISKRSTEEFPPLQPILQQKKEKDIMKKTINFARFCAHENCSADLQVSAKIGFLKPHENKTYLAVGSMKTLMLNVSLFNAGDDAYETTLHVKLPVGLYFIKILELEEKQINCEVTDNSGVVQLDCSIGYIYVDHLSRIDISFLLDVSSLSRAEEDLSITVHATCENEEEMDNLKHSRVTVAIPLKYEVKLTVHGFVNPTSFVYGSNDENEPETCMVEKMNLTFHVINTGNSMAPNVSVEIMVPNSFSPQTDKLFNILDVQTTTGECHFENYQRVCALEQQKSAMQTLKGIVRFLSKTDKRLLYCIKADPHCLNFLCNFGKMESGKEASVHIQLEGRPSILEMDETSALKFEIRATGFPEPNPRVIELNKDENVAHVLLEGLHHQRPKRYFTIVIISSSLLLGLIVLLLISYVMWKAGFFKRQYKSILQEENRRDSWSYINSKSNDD
T1 sequence (P05556 21-798): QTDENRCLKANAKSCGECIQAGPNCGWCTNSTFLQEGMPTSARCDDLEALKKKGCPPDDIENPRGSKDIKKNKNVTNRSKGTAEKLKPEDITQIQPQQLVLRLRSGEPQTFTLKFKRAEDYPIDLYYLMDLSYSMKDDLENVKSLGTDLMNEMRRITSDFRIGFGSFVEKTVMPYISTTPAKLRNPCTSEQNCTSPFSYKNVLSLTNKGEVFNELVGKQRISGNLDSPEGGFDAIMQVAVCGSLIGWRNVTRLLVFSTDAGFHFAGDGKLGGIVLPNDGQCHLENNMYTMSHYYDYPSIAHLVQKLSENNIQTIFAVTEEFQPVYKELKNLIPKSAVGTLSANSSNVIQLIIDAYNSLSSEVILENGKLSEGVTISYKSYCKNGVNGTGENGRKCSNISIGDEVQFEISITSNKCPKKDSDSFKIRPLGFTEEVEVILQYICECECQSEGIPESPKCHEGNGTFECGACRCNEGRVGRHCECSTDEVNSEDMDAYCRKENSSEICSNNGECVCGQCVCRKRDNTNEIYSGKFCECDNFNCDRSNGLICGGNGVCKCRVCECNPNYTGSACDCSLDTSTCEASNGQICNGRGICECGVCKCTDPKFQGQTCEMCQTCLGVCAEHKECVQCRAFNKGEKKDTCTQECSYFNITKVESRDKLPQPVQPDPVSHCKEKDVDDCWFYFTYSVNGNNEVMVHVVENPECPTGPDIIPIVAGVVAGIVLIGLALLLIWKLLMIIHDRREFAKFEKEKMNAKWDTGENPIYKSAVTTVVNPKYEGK

For `O=C(N[C@@H](Cc1ccc(NC(=O)N2CCOCC2)cc1)C(=O)O)C1CCCN(c2ncnc(NCc3cccnc3)c2F)C1` (some centres unmarked) [Example 5.28], the IC50 lay in the range of 500 to 2000 nM.

For the compound `CN1CCN(C(=O)Nc2ccc(C[C@H](NC(=O)C3CCCN(c4ncnc(NCc5cccnc5)c4F)C3)C(=O)O)cc2)CC1` (some centres unmarked) [Example 5.29], the half-inhibitory concentration (IC50) was 2000 to 10000 nM.

Take `O=C(N[C@@H](Cc1ccc(NC(=O)N2CCN(c3ccccc3)CC2)cc1)C(=O)O)C1CCCN(c2ncnc(NCc3cccnc3)c2F)C1` (some centres unmarked) [Example 5.30]: the 50% inhibitory concentration (IC50) was in the range of 500 to 2000 nM.

For `CN1CCN(C(=O)Nc2ccc(C[C@H](NC(=O)C3CCCN(c4ncnc(NCc5ccncc5)c4F)C3)C(=O)O)cc2)CC1` (some centres unmarked) [Example 5.31], the IC50 fell in the range of 500 to 2000 nM.

As to `CN1CCN(C(=O)Nc2ccc(C[C@H](NC(=O)C3CCCN(c4ncnc(NCC5CCNCC5)c4F)C3)C(=O)O)cc2)CC1` (some centres unmarked) [Example 5.32], the IC50 lay within 500 to 2000 nM.

On to `CN1CCN(C(=O)Nc2ccc(C[C@H](NC(=O)C3CCCN(c4ncnc(NCC5CCCCC5)c4F)C3)C(=O)O)cc2)CC1` (some centres unmarked) [Example 5.33], for which the IC50 was in the range of 2000 to 10000 nM.

`CN1CCN(C(=O)Nc2ccc(C[C@H](NC(=O)C3CCCN(c4ncnc(N)c4F)C3)C(=O)O)cc2)CC1` (some centres unmarked) [Example 5.34]: the IC50 was at most 500 nM.

Consider `O=C(N[C@@H](Cc1ccc(NC(=O)N2CCOCC2)cc1)C(=O)O)C1CCCN(c2ncnc(NCC3CCCCC3)c2F)C1` (some centres unmarked) [Example 5.35], for which the 50% inhibitory concentration (IC50) was at most 500 nM.

For the compound `CN(c1ncnc(N2CCCC(C(=O)N[C@@H](Cc3ccc(NC(=O)N4CCOCC4)cc3)C(=O)O)C2)c1F)C1CCCCC1` (some centres unmarked) [Example 5.36], the IC50 is 500 to 2000 nM.

Regarding `O=C(N[C@@H](Cc1ccc(NC(=O)N2CCN(c3ccccc3)CC2)cc1)C(=O)O)C1CCCN(c2ncnc(NCc3ccncc3)c2F)C1` (some centres unmarked) [Example 5.37], the half-maximal inhibitory concentration (IC50) was in the range of 500 to 2000 nM.

Turning to `CN(c1ncnc(N2CCCC(C(=O)N[C@@H](Cc3ccc(NC(=O)N4CCc5ccccc5C4)cc3)C(=O)O)C2)c1F)C1CCCCC1` (some centres unmarked) [Example 5.38], the IC50 fell in the range of 500 to 2000 nM.

For the compound `O=C(N[C@@H](Cc1ccc(NC(=O)N2CCN(c3ccccc3)CC2)cc1)C(=O)O)C1CCCN(c2ncnc(NCCc3ccccn3)c2F)C1` (some centres unmarked) [Example 5.39], the IC50 is 500 to 2000 nM.

In the case of `CN1CCN(c2ncnc(N3CCCC(C(=O)N[C@@H](Cc4ccc(NC(=O)N5CCc6ccccc6C5)cc4)C(=O)O)C3)c2F)CC1` (some centres unmarked) [Example 5.40], the IC50 fell in the range of 500 to 2000 nM.

`CC1CCCCN1c1ncnc(N2CCCC(C(=O)N[C@@H](Cc3ccc(NC(=O)N4CCc5ccccc5C4)cc3)C(=O)O)C2)c1F` (some centres unmarked) [Example 5.41]: the concentration for half-maximal inhibition (IC50) fell in the range of 500 to 2000 nM.

Regarding `Nc1ncnc(N2CCCC(C(=O)N[C@@H](Cc3ccc(NC(=O)N4CCN(c5ccccc5)CC4)cc3)C(=O)O)C2)c1F` (some centres unmarked) [Example 5.42], the IC50 is at most 500 nM.

Take `CN(c1ncnc(N2CCCC(C(=O)N[C@@H](Cc3ccc(NC(=O)N4CCN(c5ccccc5)CC4)cc3)C(=O)O)C2)c1F)C1CCCCC1` (some centres unmarked) [Example 5.43]: the IC50 lay in the range of 500 to 2000 nM.

With `O=C(N[C@@H](Cc1ccc(NC(=O)N2CCc3ccccc3C2)cc1)C(=O)O)C1CCCN(c2ncnc(NCc3ccncc3)c2F)C1` (some centres unmarked) [Example 5.44], the IC50 lay within 500 to 2000 nM.

In the case of `CN(Cc1ccccc1)c1ncnc(N2CCCC(C(=O)N[C@@H](Cc3ccc(NC(=O)N4CCOCC4)cc3)C(=O)O)C2)c1F` (some centres unmarked) [Example 5.45], the concentration for half-maximal inhibition (IC50) fell in the range of 500 to 2000 nM.

`COCCN(C)c1ncnc(N2CCCC(C(=O)N[C@@H](Cc3ccc(NC(=O)N4CCN(c5ccccc5)CC4)cc3)C(=O)O)C2)c1F` (some centres unmarked) [Example 5.46]: the IC50 is 500 to 2000 nM.

For the compound `O=C(N[C@@H](Cc1ccc(NC(=O)N2CCOCC2)cc1)C(=O)O)C1CCCN(c2ncnc(NCc3ccccn3)c2F)C1` (some centres unmarked) [Example 5.47], the half-maximal inhibitory concentration (IC50) lay within 500 to 2000 nM.

The term IC50 denotes the concentration that gives 50% inhibition.

For the origin of these results see patent US6794386B2, “β-amino acid compounds as integrin antagonists” (Bayer Aktiengesellschaft, priority 2000, dated 2004).
